# Reference: ChEMBL document CHEMBL2331554, “Exploring nature profits: development of novel and potent lipophilic antioxidants based on galloyl-cinnamic hybrids” (Eur J Med Chem, 2013)
# How the values were obtained:
# [1] = Antioxidant activity assessed as inhibition of ABTS radical formation for 15 mins by spectrophotometric analysis; format: functional
# [2] = test system: Radical scavenging activity; assay: Antioxidant activity assessed as inhibition of DPPH radical formation measured every min for 45 mins by spectrophotometric analysis; format: functional
Compound,IC50 [1] [µM],inhibition [1],IC50 [2] [µM],inhibition [2]
CCOC(=O)/C=C/c1ccc(O)c(O)c1 [ETHYL CAFFEATE],22.6,Dose-dependent effect,26.6,Dose-dependent effect
CCOC(=O)C(=Cc1cc(O)c(O)c(O)c1)C(=O)OCC,7.7,Dose-dependent effect,12.8,Dose-dependent effect
O=C(O)/C=C/c1cc(O)c(O)c(O)c1,7.2,Dose-dependent effect,11.8,Dose-dependent effect
CCOC(=O)C(=Cc1ccc(O)c(O)c1)C(=O)OCC,21.1,Dose-dependent effect,21.9,Dose-dependent effect
VITAMIN E [listing 1 of 2 here],–,Dose-dependent effect,–,Dose-dependent effect
VITAMIN E [listing 2 of 2 here],26.8,–,31.1,–
CCOC(=O)/C=C/c1cc(O)c(O)c(O)c1,9,Dose-dependent effect,15.1,Dose-dependent effect
Cc1c(C)c2c(c(C)c1O)CCC(C)(C(=O)O)O2 (stereo unspecified) [TROLOX],26.3,Dose-dependent effect,30.9,Dose-dependent effect
O=C(O)/C=C/c1ccc(O)c(O)c1 [CAFFEIC ACID],17.9,Dose-dependent effect,18.1,Dose-dependent effect
O=C(O)c1cc(O)c(O)c(O)c1 [GALLIC ACID],7.8,Dose-dependent effect,9.9,Dose-dependent effect
